Values after ≈ are worked out from the molar mass of the structure shown.
Legend:
[1] = molecular target: EGFR (human) (UniProt P00533); conditions: mda-mb-435
[2] = molecular target: EGFR (human) (UniProt P00533); conditions: sk-br-3
[3] = molecular target: EGFR (human) (UniProt P00533); conditions: 3t3
[4] = molecular target: EGFR (human) (UniProt P00533); conditions: sw 620
[5] = molecular target: EGFR (human) (UniProt P00533); conditions: a431
[6] = molecular target: EGFR (human) (UniProt P00533); conditions: a2780
[7] = molecular target: EGFR (human) (UniProt P00533); conditions: ddp
[8] = molecular target: EGFR (UniProt P00533); conditions: for inhibition: concentration not given here
EGFR, sequence (P00533 whole entry, looked up): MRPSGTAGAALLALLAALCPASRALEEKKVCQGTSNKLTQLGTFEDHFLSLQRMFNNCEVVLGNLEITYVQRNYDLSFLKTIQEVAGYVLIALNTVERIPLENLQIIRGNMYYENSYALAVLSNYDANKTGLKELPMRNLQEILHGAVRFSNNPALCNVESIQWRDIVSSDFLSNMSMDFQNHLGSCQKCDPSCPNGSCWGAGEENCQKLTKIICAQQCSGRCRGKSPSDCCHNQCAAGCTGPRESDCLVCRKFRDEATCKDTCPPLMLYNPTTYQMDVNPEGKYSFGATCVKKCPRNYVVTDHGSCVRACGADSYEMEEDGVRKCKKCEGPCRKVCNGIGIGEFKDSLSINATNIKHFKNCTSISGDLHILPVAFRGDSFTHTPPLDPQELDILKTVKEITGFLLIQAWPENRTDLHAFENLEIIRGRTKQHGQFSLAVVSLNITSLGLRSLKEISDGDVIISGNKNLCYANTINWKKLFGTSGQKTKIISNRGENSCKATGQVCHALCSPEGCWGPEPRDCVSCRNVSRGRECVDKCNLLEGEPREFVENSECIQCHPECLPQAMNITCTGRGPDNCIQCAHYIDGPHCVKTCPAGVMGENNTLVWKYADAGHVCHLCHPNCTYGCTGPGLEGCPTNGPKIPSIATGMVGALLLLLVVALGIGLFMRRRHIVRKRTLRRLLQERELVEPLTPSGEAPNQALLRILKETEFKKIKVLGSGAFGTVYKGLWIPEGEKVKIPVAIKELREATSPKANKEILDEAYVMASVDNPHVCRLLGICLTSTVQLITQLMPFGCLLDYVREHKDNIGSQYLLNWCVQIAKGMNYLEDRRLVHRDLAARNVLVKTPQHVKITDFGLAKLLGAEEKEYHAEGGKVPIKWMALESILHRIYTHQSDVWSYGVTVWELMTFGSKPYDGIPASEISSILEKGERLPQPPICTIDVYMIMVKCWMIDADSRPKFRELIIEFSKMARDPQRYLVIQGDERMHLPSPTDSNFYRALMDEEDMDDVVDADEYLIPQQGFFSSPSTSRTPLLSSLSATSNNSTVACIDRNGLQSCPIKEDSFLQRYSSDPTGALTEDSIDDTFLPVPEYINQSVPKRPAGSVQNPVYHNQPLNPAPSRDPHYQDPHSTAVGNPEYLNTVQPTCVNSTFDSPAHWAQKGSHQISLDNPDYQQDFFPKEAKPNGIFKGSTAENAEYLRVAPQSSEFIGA

EGFR (human), sequence (P00533 whole entry, looked up): as above

SMILES | IC50 [1] [µg/mL] | IC50 [2] [µg/mL] | IC50 [3] [µg/mL] | IC50 [4] [µg/mL] | IC50 [5] [µg/mL] | inhibition [8] [%] | also measured
CCOc1cc2ncc(C#N)c(Nc3ccc4c(=O)[nH][nH]c(=O)c4c3)c2cc1OCC | > 5 | > 5 | > 5 | > 5 | > 5 |  | 
CCOc1cc2ncc(C#N)c(Nc3ccc4cc[nH]c4c3)c2cc1OCC | 0.073 to 0.365 (≈ 0.196 to 0.98 µM) | 0.0374 to 0.18 (≈ 0.1 to 0.483 µM) |  | 0.286 to 0.326 (≈ 0.768 to 0.875 µM) | 0.123 to 0.216 (≈ 0.33 to 0.58 µM) |  | IC50 [6]: 0.231 µg/mL (≈ 0.62 µM); IC50 [7]: 0.313 µg/mL (≈ 0.84 µM)
CCOc1cc2ncc(C#N)c(Nc3ccc4c(c3)CCC4=O)c2cc1OCC | 0.028 (≈ 0.0723 µM) | 0.0281 (≈ 0.0725 µM) | 0.0923 (≈ 0.238 µM) |  | 0.0244 (≈ 0.063 µM) |  | 
COc1cc2ncc(C#N)c(Nc3ccc(O)c4ncccc34)c2cc1OC |  |  |  |  |  | 0 | 
COc1cc2ncc(C#N)c(Nc3ccc4[nH]ncc4c3)c2cc1OC |  |  |  |  |  | 0 | 
COc1cc2c(Nc3ccc4cn[nH]c4c3)c(C#N)cnc2cc1OCCN(C)C |  |  |  |  |  | 0 | 
COc1cc2ncc(C#N)c(Nc3ccc4[nH]c(=O)sc4c3)c2cc1OC |  |  |  |  |  | 0 | 
CCOc1cc2ncc(C#N)c(Nc3ccc4c(c3)C(=O)OC4)c2cc1OCC | 3.4 (≈ 8.74 µM) | > 5 |  | 1.56 (≈ 4.02 µM) | > 5 |  | 
COc1cc2ncc(C#N)c(Nc3cccc4ncccc34)c2cc1OC |  |  |  |  |  | 0 | 
CCOc1cc2ncc(C#N)c(Nc3ccc4c(C)cc(=O)oc4c3)c2cc1OCC |  | 0.429 (≈ 1.03 µM) |  | 0.325 (≈ 0.782 µM) | 0.369 (≈ 0.888 µM) |  | IC50 [6]: 0.27 µg/mL (≈ 0.65 µM); IC50 [7]: 0.249 µg/mL (≈ 0.599 µM)
CCOc1cc2ncc(C#N)c(Nc3ccc4c(c3)NCC4)c2cc1OCC |  |  |  |  |  | 6 | IC50 [8]: > 10000 nM
CCOc1cc2ncc(C#N)c(Nc3ccc4c(c3)S(=O)(=O)C=C4)c2cc1OCC | 0.0033 (≈ 0.00783 µM) | 0.336 (≈ 0.797 µM) | 0.392 (≈ 0.93 µM) | 0.146 (≈ 0.346 µM) |  |  | 
CCOc1cc2ncc(C#N)c(Nc3ccc4c(c3)C(=O)NCC(=O)N4C)c2cc1OCC | > 5 | > 5 |  | > 5 | > 5 |  | 
Cn1ccnc1Sc1ccc(Nc2c(C#N)cnc3ccc(/C=C/C(N)=O)cc23)cc1Cl |  |  |  |  |  |  | IC50 [8]: 10 nM
CCOc1cc2ncc(C#N)c(Nc3ccc4cn[nH]c4c3)c2cc1OCC | 0.02 (≈ 0.0536 µM) | 0.016 (≈ 0.0428 µM) |  | 0.033 (≈ 0.0884 µM) | 0.025 (≈ 0.0669 µM) |  | IC50 [6]: 0.032 µg/mL (≈ 0.0857 µM); IC50 [7]: 0.036 µg/mL (≈ 0.0964 µM)
CCOc1cc2c(Nc3ccc4cn[nH]c4c3)c(C#N)cnc2cc1OC | 2.63 (≈ 7.31 µM) | 2.09 (≈ 5.83 µM) | 3.22 (≈ 8.96 µM) | 4.31 (≈ 12 µM) |  |  | 
CCOc1cc2ncc(C#N)c(Nc3ccc4c(c3)OCCO4)c2cc1OCC | 0.235 (≈ 0.6 µM) | 0.281 (≈ 0.718 µM) | 0.853 (≈ 2.18 µM) | 0.411 (≈ 1.05 µM) |  |  | 
COc1cc2ncc(C#N)c(Nc3ccc4[nH]ccc4c3)c2cc1OC |  |  |  |  |  |  | IC50 [8]: 1.5 to 4 nM
COc1cc2ncc(C#N)c(Nc3cccc4cnccc34)c2cc1OC |  |  |  |  |  | 0 | 
CCOc1cc2ncc(C#N)c(Nc3ccc4[nH]c(=O)oc(=O)c4c3)c2cc1OCC | > 5 | > 5 | > 5 | 2.92 (≈ 6.98 µM) | > 5 |  | 
CCOc1cc2ncc(C#N)c(Nc3ccc4c(c3)CCC4)c2cc1OCC | 0.352 (≈ 0.943 µM) | > 0.294 | 0.525 (≈ 1.41 µM) | < 0.0005 |  |  | 
CCOc1cc2ncc(C#N)c(Nc3ccc4c[nH]nc4c3)c2cc1OC | 0.0359 (≈ 0.0999 µM) | 0.022 (≈ 0.0612 µM) |  | 0.0212 (≈ 0.059 µM) |  |  | 
COCCOc1cc2ncc(C#N)c(Nc3ccc4cn[nH]c4c3)c2cc1OCCOC | 2.04 (≈ 4.72 µM) | > 5 | > 5 | > 5 |  |  | 

Reference: the Kinase Knowledgebase extract (Sharma et al. 2016)
